Results from paper PMC7397056, “Design, Facile Synthesis and Characterization of Dichloro Substituted Chalcones and Dihydropyrazole Derivatives for Their Antifungal, Antitubercular and Antiproliferative Activities” (Molecules, 2020).
Values after ≈ are worked out from the molar mass of the structure shown.

What was measured:
[1] = system: Candida tropicalis (ATCC-1369); test: Antifungal activity, serial tube dilution method (MIC); conditions: for MIC: Candida tropicalis, ATCC1369, 18 h, read-out: Antifungal activity MIC, C. tropicalis, serial tube dilution, 37 °C, 18 h, average of three
[2] = Cytotoxic activity on normal cells, MTT assay; assay type: cell-based; conditions: L02 cells (normal human cell line)
Method: (§1) The antiproliferative activity of the compounds was determined their IC50 values. Methotrexate (Mtx; positive control) was used as a reference standard for comparing the antiproliferative activity of the target compounds. The MTT (3-(4,5-dimethylthiazol-2-yl)-2,5-diphenyl tetrazolium bromide) assay was based on the reduction of the soluble MTT (0.5 mg mL^−1, 100 µL) into a blue-purple formazan product, mainly by the activity of mitochondrial reductase enzymes inside the living cells. The prostate cancer cell lines, DU-145 cells, were cultured in Dulbecco’s Modified Eagle Medium (DMEM) media at 37 °C and humidified at 5% CO2. Stock solutions of the test compounds (17–46) were prepared in 0.1% DMSO followed by dilution with sterile water to obtain the desired final concentrations. Briefly, the cells were placed on 96-well plates at 100 µL total volume with the density of 1 × 10^4 cells per well and were allowed to adhere for 24 h. Then the medium was replaced with fresh media containing different dilutions of the test compounds and incubated for additional 48 h at 37 °C in DMEM with 10% fetal bovine serum (FBS) medium. Subsequently, the medium was replaced with 90 μL of fresh DMEM without FBS. The above wells were treated with 10 μL of MTT reagent (5 mg/mL of stock solution in DMEM without FBS) and incubated at 37 °C for 3–4 h. The formed blue formazan crystals were dissolved in 200 μL of DMSO. The optical density was determined at 570 nm using a micro plate reader. The assay was performed in triplicate for three independent experiments. The same experimentation was also done to confirm that the DMSO (negative control) had no effect in the study. The results had good reproducibility between replicate wells with standard errors below 10%. The antiproliferative activity results measured as IC50 values in µg/mL were converted and expressed in µM. Additionally, the cytotoxic activity of the compounds was also measured employing the same protocol discussed above to assess their toxicity on normal human cell lines (L02).

[3] = system: prostate cancer cell lines (DU-145); test: Antiproliferative activity, MTT assay; assay type: cell-based; conditions: Homo sapiens, 48 h, mean ± SD (n = 3)
Method: as §1

[4] = system: Aspergillus niger (ATCC-6275); test: Antifungal activity, serial tube dilution method (MIC); conditions: for MIC: Aspergillus niger, ATCC6275, 18 h, read-out: Antifungal activity MIC, A. niger, serial tube dilution, 37 °C, 18 h, average of three
[5] = system: Mycobacterium tuberculosis H37Rv; test: Antitubercular activity, broth dilution assay (MIC); assay type: cell-based; conditions: for MIC: Mycobacterium tuberculosis, H37RV, 504 h, Middlebrook 7H9 broth, 37 °C, 21 days
[6] = serial tube dilution, 37 °C, 18 h, average of three

SMILES: Cc1ccc(/C=C/C(=O)c2ccc(Cl)c(Cl)c2)cc1 [Compound 2]
- MIC [1]: 110 µM (≈ 32 µg/mL)
- IC50 at 48 h [2]: > 50 µg/mL
- IC50 [3]: 432 ± 2 µM
- MIC [4]: 110 µM (≈ 32 µg/mL)
- MIC [5]: 343 µM (≈ 100 µg/mL)

SMILES: O=C(/C=C/c1ccc(F)cc1)c1ccc(Cl)c(Cl)c1 [Compound 3]
- MIC [1]: 54.2 µM (≈ 16 µg/mL)
- IC50 at 48 h [2]: > 50 µg/mL
- IC50 [3]: 176 ± 2 µM
- MIC [4]: 54.2 µM (≈ 16 µg/mL)
- MIC [5]: 84.7 µM (≈ 25 µg/mL)

SMILES: O=C(/C=C/c1ccccc1F)c1ccc(Cl)c(Cl)c1 [Compound 4]
- MIC [1]: 54.2 µM (≈ 16 µg/mL)
- IC50 at 48 h [2]: > 50 µg/mL
- IC50 [3]: 393 ± 2 µM
- MIC [4]: 27.1 µM (≈ 8 µg/mL)
- MIC [5]: 84.7 µM (≈ 25 µg/mL)

SMILES: O=C(/C=C/c1ccc(Cl)cc1)c1ccc(Cl)c(Cl)c1 [Compound 5]
- MIC [1]: 51.3 µM (≈ 16 µg/mL)
- IC50 at 48 h [2]: > 50 µg/mL
- IC50 [3]: 147 ± 2 µM
- MIC [4]: 25.7 µM (≈ 8 µg/mL)
- MIC [5]: 80.2 µM (≈ 25 µg/mL)

SMILES: O=C(/C=C/c1ccccc1Cl)c1ccc(Cl)c(Cl)c1 [Compound 6]
- MIC [1]: 51.3 µM (≈ 16 µg/mL)
- IC50 at 48 h [2]: > 50 µg/mL
- IC50 [3]: 141 ± 2 µM
- MIC [4]: 25.7 µM (≈ 8 µg/mL)
- MIC [5]: 20.1 µM (≈ 6.25 µg/mL)

SMILES: O=C(/C=C/c1ccc(F)cc1F)c1ccc(Cl)c(Cl)c1 [Compound 7, (E)-1-(3,4-dichlorophenyl)-3-(2,4-difluorophenyl)prop-2-en-1-one]
- melting point: 265 °C
- MIC [1]: 51.1 µM (≈ 16 µg/mL)
- IC50 at 48 h [2]: > 50 µg/mL
- IC50 [3]: 31 ± 2 µM
- MIC [4]: 25.5 µM (≈ 8 µg/mL)
- MIC [5]: 9.96 µM (≈ 3.12 µg/mL)

SMILES: O=C(/C=C/c1ccc(Cl)cc1Cl)c1ccc(Cl)c(Cl)c1 [Compound 8, (E)-1-(3,4-dichlorophenyl)-3-(2,4-dichlorophenyl)prop-2-en-1-one]
- melting point: 299 °C
- MIC [1]: 46.2 µM (≈ 16 µg/mL)
- IC50 at 48 h [2]: > 50 µg/mL
- IC50 [3]: 254 ± 2 µM
- MIC [4]: 23.1 µM (≈ 8 µg/mL)
- MIC [5]: 18.1 µM (≈ 6.25 µg/mL)

SMILES: O=C(/C=C/c1ccc(C(F)(F)F)cc1)c1ccc(Cl)c(Cl)c1 [Compound 9, (E)-1-(3,4-dichlorophenyl)-3-(4-trifluoromethylphenyl)prop-2-en-1-one]
- melting point: 169 °C
- MIC [1]: 11.6 µM (≈ 4 µg/mL)
- IC50 at 48 h [2]: > 50 µg/mL
- IC50 [3]: 292 ± 1 µM
- MIC [4]: 11.6 µM (≈ 4 µg/mL)
- MIC [5]: 9.03 µM (≈ 3.12 µg/mL)
- fold improvement in antitubercular activity vs. compound 2 ([5]; comparator compound 2 (MIC 343.44 µM)): approximately 40 fold
- fold better activity than the standard pyrazinamide ([5]; ratio of MICs vs pyrazinamide (MIC 25.34 µM)): 2.8 fold

SMILES: O=C(/C=C/c1ccc2c(c1)OCO2)c1ccc(Cl)c(Cl)c1 [Compound 10]
- MIC [1]: 180 µM (≈ 57.8 µg/mL)
- Antifungal activity MIC, C. tropicalis [1, 6]: 180.62 µM
- IC50 at 48 h [2]: > 50 µg/mL
- IC50 [3]: 138 ± 2 µM
- MIC [4]: 23 µM (≈ 7.39 µg/mL)
- Antifungal activity MIC, A. niger [4, 6]: 23.11 µM
- MIC [5]: 72.2 µM (≈ 23.2 µg/mL)

SMILES: O=C(/C=C/c1ccccn1)c1ccc(Cl)c(Cl)c1 [Compound 11, (E)-1-(3,4-dichlorophenyl)-3-(pyridin-2-yl)prop-2-en-1-one]
- melting point: 156 °C
- MIC [1]: 28.9 µM (≈ 8.03 µg/mL)
- IC50 at 48 h [2]: > 50 µg/mL
- IC50 [3]: 353 ± 2 µM
- MIC [4]: 28.9 µM (≈ 8.03 µg/mL)
- MIC [5]: 45.1 µM (≈ 12.5 µg/mL)

SMILES: O=C(/C=C/c1cccnc1)c1ccc(Cl)c(Cl)c1 [Compound 12, (E)-1-(3,4-dichlorophenyl)-3-(pyridin-3-yl)prop-2-en-1-one]
- melting point: 191 °C
- MIC [1]: 14.4 µM (≈ 4.01 µg/mL)
- IC50 at 48 h [2]: > 50 µg/mL
- IC50 [3]: 256 ± 2 µM
- MIC [4]: 28.9 µM (≈ 8.03 µg/mL)
- MIC [5]: 22.6 µM (≈ 6.27 µg/mL)

SMILES: O=C(/C=C/c1ccncc1)c1ccc(Cl)c(Cl)c1 [Compound 13]
- MIC [1]: 113 µM (≈ 31.4 µg/mL)
- IC50 at 48 h [2]: > 50 µg/mL
- IC50 [3]: 209 ± 2 µM
- MIC [4]: 57.8 µM (≈ 16.1 µg/mL)
- MIC [5]: 45.1 µM (≈ 12.5 µg/mL)

SMILES: O=C(/C=C/c1ccco1)c1ccc(Cl)c(Cl)c1 [Compound 14, (E)-1-(3,4-dichlorophenyl)-3-(furan-2-yl)prop-2-en-1-one]
- melting point: 172 °C
- MIC [1]: 117 µM (≈ 31.4 µg/mL)
- IC50 at 48 h [2]: > 50 µg/mL
- IC50 [3]: 206 ± 2 µM
- MIC [4]: 235 µM (≈ 62.8 µg/mL)
- MIC [5]: 47 µM (≈ 12.6 µg/mL)

SMILES: OC(Cn1cncn1)(Cn1cncn1)c1ccc(F)cc1F [Fluconazole, reference compound]
- MIC [1]: 19.6 µM (≈ 6 µg/mL)
- MIC [4]: 26.1 µM (≈ 8 µg/mL)

SMILES: NC(=O)c1cnccn1 [Pyrazinamide, reference compound]
- MIC [5]: 25.3 µM (≈ 3.12 µg/mL)
